{
  "source": "patent US20200397894A1",
  "about": "“COMPOSITIONS AND METHODS FOR TREATING CANCER” (University of Virginia Patent Foundation, priority 2016, published 2020)",
  "key": {"[1]": {"test_system": "DM331 xenografts", "test": "Melanoma flank xenograft in nude mice", "assay_type": "in vivo", "conditions": "vs. vehicle; PLX4720 in rodent diet 417 mg/kg", "method": "All animal experiments were performed after approval of animal protocols by the Animal Care and Use Committee (ACUC) of the University of Virginia. Animals were housed and handled in accordance with the guidelines of the ACUC of the University of Virginia. The effect of pevonedistat on melanoma growth was tested in flank xenograft models. Foxn1^nu (20-25 g body weight, 4-5 weeks old females) athymic nude immune-deficient mice (Harlan Laboratories, now Envigo, Indianapolis, Ind., United States of America) were used in this study. Pevonedistat was dissolved in sterile 10% DMSO containing PBS (stock 1 mM), filtered, and stored in −20° C. until use. DM93, VMM39, SLM2, DM331, or SK-MEL-24 (2×10^6) melanoma cells were implanted in both flanks of immune-deficient mice (n=12 mice per group) and tumor growth was monitored until they grow to an average volume of 150-200 mm^3, and mice were randomized into groups for treatment. Animals were administered 0.2 mL pevonedistat solution (30 or 60 mg/kg body weight as indicated) intraperitoneally on a schedule of two cycles of five-day treatment followed by five treatment-free days, for 3 weeks, or more as indicated. Control animals were treated with an equal volume of sterile vehicle (10% DMSO in PBS). Where indicated, mice received control rodent diet, or rodent diet with 417 mg/kg PLX4720 (Research Diets, Inc. New Brunswick, N.J., United States of America). Tumors were measured with an electronic caliper every other day for 3 weeks post-drug injection. Animal weight was recorded once a week to detect any weight loss due to the toxicity of drug treatment or tumor burden. At the end of the treatment, animals were euthanized and tumors harvested for further processing. The results shown are mean tumor volumes±s.e.m; *p<0.05, **p<0.01, ***p<0.001."}, "[2]": {"test_system": "DM331 and SK-MEL-24 cells from PLX4720-resistant tumors", "test": "In vitro sensitivity of cells extracted ex vivo from PLX4720-resistant tumors", "assay_type": "cell-based, human", "conditions": "DM331 and SK-MEL-24 cells extracted ex vivo", "method": "Proliferation and viability of cultured cells was measured by CELLTITER96® Non-radioactive Cell Proliferation Assay (Promega Corporation; Madison, Wis., United States of America). Briefly, various wild type and mutant BRAF melanoma cells were seeded in 96 well plates and treated with pevonedistat, vemurafenib, or the combination pevonedistat and vemurafenib at various concentrations. Control cells were treated with DMSO. 96 hours following treatment, cells were stained with the dye solution according to the manufacturer's protocol. Absorbance was recorded at 570 nm and growth curves were established. […] Cells were counted every 24 hours using a COUNTESS™ Automated Cell Counter (INVITROGEN™, Carlsbad, Calif., United States of America), and harvested at the indicated times for PI staining and FACS analysis (cell cycle profile) or for immunoblotting.\nThe effects of pevonedistat, vemurafenib, and/or silencing of various cell cycle-associated proteins by siRNA on cell cycle distribution and rereplication were assessed by propidium iodide staining and flow cytometry of asynchronous melanoma cultures. […]"}, "[3]": {"test_system": "DM93 cells", "test": "Cell cycle distribution and rereplication by propidium iodide staining and FACS", "assay_type": "cell-based, human", "method": "The effects of pevonedistat, vemurafenib, and/or silencing of various cell cycle-associated proteins by siRNA on cell cycle distribution and rereplication were assessed by propidium iodide staining and flow cytometry of asynchronous melanoma cultures. Synchronization of cells was not employed to avoid bias and to be able to measure the impact of these perturbations on proliferating cancer cells. […] Cells were washed with cold PBS, harvested, and fixed in 70% (v/v) ethanol. Cells were subsequently treated with 20 μg of DNase-free RNase and stained with propidium iodide according to instructions of the manufacturer. Samples were analyzed on a FACSCAN™ (Becton, Dickinson and Company, Franklin Lakes, N.J., United States of America) and G0-G1, S, and G2-M fractions were segmented, and apoptotic (sub-G1 DNA content) and rereplicating (>G2/M DNA content) fractions were determined using FLOWJO® (FLOWJO, LLC, Ashland, Oreg., United States of America) and ModFit (Verity Software House, Topsham, Me., United States of America) software."}, "[4]": {"test_system": "VMM39 cells", "test": "Rereplication by propidium iodide staining and FACS", "assay_type": "cell-based, human", "conditions": "retroviral overexpression of SET8 and/or p21 species", "method": "The effects of pevonedistat, vemurafenib, and/or silencing of various cell cycle-associated proteins by siRNA on cell cycle distribution and rereplication were assessed by propidium iodide staining and flow cytometry of asynchronous melanoma cultures. Synchronization of cells was not employed to avoid bias and to be able to measure the impact of these perturbations on proliferating cancer cells. Briefly, asynchronous melanoma cell lines were treated with pevonedistat or vemurafenib, or transfected with si-CDT1, si-CDT2, si-SET8, si-p21, sigeminin, si-EMI1, or si-GL2 for a time ranging from 24 to 96 hours. Cells were washed with cold PBS, harvested, and fixed in 70% (v/v) ethanol. Cells were subsequently treated with 20 μg of DNase-free RNase and stained with propidium iodide according to instructions of the manufacturer. Samples were analyzed on a FACSCAN™ (Becton, Dickinson and Company, Franklin Lakes, N.J., United States of America) and G0-G1, S, and G2-M fractions were segmented, and apoptotic (sub-G1 DNA content) and rereplicating (>G2/M DNA content) fractions were determined using FLOWJO® (FLOWJO, LLC, Ashland, Oreg., United States of America) and ModFit (Verity Software House, Topsham, Me., United States of America) software."}},
  "data": [
    {"molecule": "CCCS(=O)(=O)Nc1ccc(F)c(C(=O)c2c[nH]c3ncc(Cl)cc23)c1F", "note": "[PLX4720]", "values": [
      {"measurement": "growth of DM331 xenografts", "setting": "[1]", "result": "inhibited"}
    ]},
    {"molecule": "CCCS(=O)(=O)Nc1ccc(F)c(C(=O)c2c[nH]c3ncc(-c4ccc(Cl)cc4)cc23)c1F", "note": "[vemurafenib, N-(3-(5-(4-chlorophenyl)-1H-pyrrolo[2,3-b]pyridine-3-carbonyl)-2,4-difluorophenyl)propane-1-sulfonamide]", "values": [
      {"measurement": "sensitivity in vitro of cells from PLX4720-resistant tumors", "setting": "[2]", "result": "remained insensitive"},
      {"measurement": "cells undergoing pevonedistat-induced rereplication after vemurafenib pretreatment", "setting": "[3]; DM93, pretreatment with vemurafenib for 24 hours, then 1 μM pevonedistat 48 hours", "result": 16, "unit": "%"},
      {"measurement": "effect on cell cycle", "setting": "[3]; DM93 cells", "result": "robust G1 growth arrest and complete depletion of S-phase cells"}
    ]},
    {"molecule": "Wild-type SET8: N-terminal FLAG-tagged Set8 protein encoded by a retrovirus (protein, UniProt Q9NQR1 1-393, looked up, N-terminal FLAG tag, N-terminal FLAG-tagged Set8 protein encoded by a retrovirus) N-lysine methyltransferase …: MGEGGAAAALVAAAAAAAAAAAAVVAGQRRRRLGRRARCHGPGRAAGGKMSKPCAVEAAAAAVAATAPGPEMVERRGPGRPRTDGENVFTGQSKIYSYMSPNKCSGMRFPLQEENSVTHHEVKCQGKPLAGIYRKREEKRNAGNAVRSAMKSEEQKIKDARKGPLVPFPNQKSEAAEPPKTPPSSCDSTNAAIAKQALKKPIKGKQAPRKKAQGKTQQNRKLTDFYPVRRSSRKSKAELQSEERKRIDELIESGKEEGMKIDLIDGKGRGVIATKQFSRGDFVVEYHGDLIEITDAKKREALYAQDPSTGCYMYYFQYLSKTYCVDATRETNRLGRLINHSKCGNCQTKLHDIDGVPHLILIASRDIAAGEELLYDYGDRSKASIEAHPWLKH", "values": [
      {"measurement": "Percent Rereplication in VMM39", "setting": "[4]", "result": 4.98, "unit": "%"},
      {"measurement": "Percent Rereplication in DM93", "setting": "[3]; retroviral overexpression of SET8 and/or p21 species", "result": 3.87, "unit": "%"}
    ]},
    {"molecule": "Wild-type CDT1: wild-type CDT1 ectopically expressed from retrovirus (protein, UniProt Q9H211 1-546, looked up) DNA replication factor Cdt1: MEQRRVTDFFARRRPGPPRIAPPKLACRTPSPARPALRAPASATSGSRKRARPPAAPGRDQARPPARRRLRLSVDEVSSPSTPEAPDIPACPSPGQKIKKSTPAAGQPPHLTSAQDQDTISELASCLQRARELGARVRALKASAQDAGESCTPEAEGRPEEPCGEKAPAYQRFHALAQPGLPGLVLPYKYQVLAEMFRSMDTIVGMLHNRSETPTFAKVQRGVQDMMRRRFEECNVGQIKTVYPASYRFRQERSVPTFKDGTRRSDYQLTIEPLLEQEADGAAPQLTASRLLQRRQIFSQKLVEHVKEHHKAFLASLSPAMVVPEDQLTRWHPRFNVDEVPDIEPAALPQPPATEKLTTAQEVLARARNLISPRMEKALSQLALRSAAPSSPGSPRPALPATPPATPPAASPSALKGVSQDLLERIRAKEAQKQLAQMTRCPEQEQRLQRLERLPELARVLRSVFVSERKPALSMEVACARMVGSCCTIMSPGEMEKHLLLLSELLPDWLSLHRIRTDTYVKLDKAADLAHITARLAHQTRAEEGL", "values": [
      {"measurement": "Percent Rereplication", "setting": "[3]; retroviral overexpression of CDT1 species, DM93 per text", "result": 51.4, "unit": "%"}
    ]}
  ]
}
